Measured values from US20150366890A1, “COMPOSITIONS AND METHODS FOR TREATING FUNGAL INFECTIONS” (TRUSTEES OF BOSTON UNIVERSITY, priority 2013, published 2015).

System: S. cerevisiae single-deletion yeast strains
Experiment: High-throughput 96-well screen of AF sensitivity of single-gene knockouts (CFU at start and after 8 hours)
Type: cell-based
Procedure: To identify genes critical to AF action, the AF sensitivity of single-gene knockouts identified through the common transcriptional analysis were identified. In the first pass-through, 56 testable genes were identified. This set was later expanded to include targets identified through phenotypic analysis and metabolomic profiling, for a total of 84 target genes (Table 2). The initial 56 targets were tested using a rapid high-throughput 96-well assay with AMB and MCZ to identify single-gene knockouts with elevated resistance to AFs (Table 2). Knockouts that were more resistant to at least one of the AFs were tested individually using the 24-well colony forming (CF) assay. Target genes selected after the initial 56 strains were assayed individually using the 24-well CF assay.
The first 56 S. cerevisiae strains were acquired from the deletion library and stored in 96-well plates in replicates of three. To start the assay, the plates were defrosted and 10 μl of stored cells were inoculated into 100 μl of fresh synthetic dextrose complete (SDC) media for 16 hours. These overnight cultures were diluted into a fresh 96-well plate with 100 μl of SDC to achieve an OD600 of approximately 0.2. Colony forming units (CFU) in each well were measured at the start of the assay and after 8 hours of incubation. The AF susceptibility of each strain was compared to that of wildtype. Strains with significant susceptibility differences from wildtype were assayed in 0.5 ml of SDC media using the 24-well plate CF assay described above.

C[C@@H]1[C@H](O)[C@@H](C)/C=C/C=C/C=C/C=C/C=C/C=C/C=C/[C@H](O[C@@H]2O[C@H](C)[C@@H](O)[C@H](N)[C@@H]2O)C[C@@H]2O[C@](O)(C[C@@H](O)C[C@@H](O)[C@H](O)CC[C@@H](O)C[C@@H](O)CC(=O)O[C@H]1C)C[C@H](O)[C@H]2C(=O)O [AMB, amphotericin B]
96 Well Screen, AF susceptibility vs wildtype (S. cerevisiae PAB101, WT): Normal | 96 Well Screen, AF susceptibility vs wildtype (S. cerevisiae PAB102, HSP104 deletion): Resistant (″Resistant″ or ″Sensitive″ indicate at least a 5-fold CFU difference from wildtype at the final time point) | 96 Well Screen, AF susceptibility vs wildtype (S. cerevisiae PAB103, SDH2 deletion): Resistant (″Resistant″ or ″Sensitive″ indicate at least a 5-fold CFU difference from wildtype at the final time point) | 96 Well Screen, AF susceptibility vs wildtype (S. cerevisiae PAB104, FRE8 deletion): Resistant (″Resistant″ or ″Sensitive″ indicate at least a 5-fold CFU difference from wildtype at the final time point) | 96 Well Screen, AF susceptibility vs wildtype (S. cerevisiae PAB105, CHA4 deletion): Resistant (″Resistant″ or ″Sensitive″ indicate at least a 5-fold CFU difference from wildtype at the final time point) | 96 Well Screen, AF susceptibility vs wildtype (S. cerevisiae PAB106, FMS1 deletion): Resistant (″Resistant″ or ″Sensitive″ indicate at least a 5-fold CFU difference from wildtype at the final time point) | 96 Well Screen, AF susceptibility vs wildtype (S. cerevisiae PAB107, NDE1 deletion): Resistant (″Resistant″ or ″Sensitive″ indicate at least a 5-fold CFU difference from wildtype at the final time point) | 96 Well Screen, AF susceptibility vs wildtype (S. cerevisiae PAB108, ALD3 deletion): Resistant (″Resistant″ or ″Sensitive″ indicate at least a 5-fold CFU difference from wildtype at the final time point) | 96 Well Screen, AF susceptibility vs wildtype (S. cerevisiae PAB109, GAD1 deletion): Normal | 96 Well Screen, AF susceptibility vs wildtype (S. cerevisiae PAB110, PGM3 deletion): Normal | 96 Well Screen, AF susceptibility vs wildtype (S. cerevisiae PAB111, PYK2 deletion): Resistant (″Resistant″ or ″Sensitive″ indicate at least a 5-fold CFU difference from wildtype at the final time point) | 96 Well Screen, AF susceptibility vs wildtype (S. cerevisiae PAB112, MNE1 deletion): Normal | 96 Well Screen, AF susceptibility vs wildtype (S. cerevisiae PAB113, FUM1 deletion): Normal | 96 Well Screen, AF susceptibility vs wildtype (S. cerevisiae PAB114, TPK2 deletion): Normal | 96 Well Screen, AF susceptibility vs wildtype (S. cerevisiae PAB115, ATG29 deletion): Resistant (″Resistant″ or ″Sensitive″ indicate at least a 5-fold CFU difference from wildtype at the final time point) | 96 Well Screen, AF susceptibility vs wildtype (S. cerevisiae PAB116, ISU1 deletion): Resistant (″Resistant″ or ″Sensitive″ indicate at least a 5-fold CFU difference from wildtype at the final time point) | 96 Well Screen, AF susceptibility vs wildtype (S. cerevisiae PAB117, CYC7 deletion): Normal | 96 Well Screen, AF susceptibility vs wildtype (S. cerevisiae PAB118, ARN1 deletion): Normal | 96 Well Screen, AF susceptibility vs wildtype (S. cerevisiae PAB119, CIT2 deletion): Resistant (″Resistant″ or ″Sensitive″ indicate at least a 5-fold CFU difference from wildtype at the final time point) | 96 Well Screen, AF susceptibility vs wildtype (S. cerevisiae PAB120, HSP30 deletion): Normal | 96 Well Screen, AF susceptibility vs wildtype (S. cerevisiae PAB121, SDH1 deletion): Normal | 96 Well Screen, AF susceptibility vs wildtype (S. cerevisiae PAB122, TPK3 deletion): Resistant (″Resistant″ or ″Sensitive″ indicate at least a 5-fold CFU difference from wildtype at the final time point) | 96 Well Screen, AF susceptibility vs wildtype (S. cerevisiae PAB123, ISU2 deletion): Normal | 96 Well Screen, AF susceptibility vs wildtype (S. cerevisiae PAB124, TPK1 deletion): Normal | 96 Well Screen, AF susceptibility vs wildtype (S. cerevisiae PAB125, MID2 deletion): Normal | 96 Well Screen, AF susceptibility vs wildtype (S. cerevisiae PAB126, SSK1 deletion): Sensitive (″Resistant″ or ″Sensitive″ indicate at least a 5-fold CFU difference from wildtype at the final time point) | 96 Well Screen, AF susceptibility vs wildtype (S. cerevisiae PAB127, HSP42 deletion): Normal | 96 Well Screen, AF susceptibility vs wildtype (S. cerevisiae PAB128, PIG1 deletion): Normal | 96 Well Screen, AF susceptibility vs wildtype (S. cerevisiae PAB130, UGA1 deletion): Resistant (″Resistant″ or ″Sensitive″ indicate at least a 5-fold CFU difference from wildtype at the final time point) | 96 Well Screen, AF susceptibility vs wildtype (S. cerevisiae PAB131, MTL1 deletion): Normal | 96 Well Screen, AF susceptibility vs wildtype (S. cerevisiae PAB132, CIT3 deletion): Resistant (″Resistant″ or ″Sensitive″ indicate at least a 5-fold CFU difference from wildtype at the final time point) | 96 Well Screen, AF susceptibility vs wildtype (S. cerevisiae PAB133, ZWF1 deletion): Normal | 96 Well Screen, AF susceptibility vs wildtype (S. cerevisiae PAB134, SUM1 deletion): sensitive | 96 Well Screen, AF susceptibility vs wildtype (S. cerevisiae PAB135, NDI1 deletion): Resistant (″Resistant″ or ″Sensitive″ indicate at least a 5-fold CFU difference from wildtype at the final time point) | 96 Well Screen, AF susceptibility vs wildtype (S. cerevisiae PAB136, PGM2 deletion): Normal | 96 Well Screen, AF susceptibility vs wildtype (S. cerevisiae PAB137, HFD1 deletion): Normal | 96 Well Screen, AF susceptibility vs wildtype (S. cerevisiae PAB138, PUF2 deletion): Normal | 96 Well Screen, AF susceptibility vs wildtype (S. cerevisiae PAB139, TDH1 deletion): Sensitive (″Resistant″ or ″Sensitive″ indicate at least a 5-fold CFU difference from wildtype at the final time point) | 96 Well Screen, AF susceptibility vs wildtype (S. cerevisiae PAB140, GUD1 deletion): Sensitive (″Resistant″ or ″Sensitive″ indicate at least a 5-fold CFU difference from wildtype at the final time point) | 96 Well Screen, AF susceptibility vs wildtype (S. cerevisiae PAB141, ATG15 deletion): Sensitive (″Resistant″ or ″Sensitive″ indicate at least a 5-fold CFU difference from wildtype at the final time point) | 96 Well Screen, AF susceptibility vs wildtype (S. cerevisiae PAB142, TDH2 deletion): Sensitive (″Resistant″ or ″Sensitive″ indicate at least a 5-fold CFU difference from wildtype at the final time point) | 96 Well Screen, AF susceptibility vs wildtype (S. cerevisiae PAB143, ATP1 deletion): Sensitive (″Resistant″ or ″Sensitive″ indicate at least a 5-fold CFU difference from wildtype at the final time point) | 96 Well Screen, AF susceptibility vs wildtype (S. cerevisiae PAB144, UGA2 deletion): Sensitive (″Resistant″ or ″Sensitive″ indicate at least a 5-fold CFU difference from wildtype at the final time point) | 96 Well Screen, AF susceptibility vs wildtype (S. cerevisiae PAB145, CIT1 deletion): Resistant (″Resistant″ or ″Sensitive″ indicate at least a 5-fold CFU difference from wildtype at the final time point) | 96 Well Screen, AF susceptibility vs wildtype (S. cerevisiae PAB146, SOLI deletion): Normal | 96 Well Screen, AF susceptibility vs wildtype (S. cerevisiae PAB147, PAN6 deletion): Normal | 96 Well Screen, AF susceptibility vs wildtype (S. cerevisiae PAB148, SOL4 deletion): Normal | 96 Well Screen, AF susceptibility vs wildtype (S. cerevisiae PAB149, YAK1 deletion): Sensitive (″Resistant″ or ″Sensitive″ indicate at least a 5-fold CFU difference from wildtype at the final time point) | 96 Well Screen, AF susceptibility vs wildtype (S. cerevisiae PAB150, PBS2 deletion): Sensitive (″Resistant″ or ″Sensitive″ indicate at least a 5-fold CFU difference from wildtype at the final time point) | 96 Well Screen, AF susceptibility vs wildtype (S. cerevisiae PAB152, GPD1 deletion): Sensitive (″Resistant″ or ″Sensitive″ indicate at least a 5-fold CFU difference from wildtype at the final time point) | 96 Well Screen, AF susceptibility vs wildtype (S. cerevisiae PAB153, SHO1 deletion): Sensitive (″Resistant″ or ″Sensitive″ indicate at least a 5-fold CFU difference from wildtype at the final time point) | 96 Well Screen, AF susceptibility vs wildtype (S. cerevisiae PAB154, FET3 deletion): Sensitive (″Resistant″ or ″Sensitive″ indicate at least a 5-fold CFU difference from wildtype at the final time point) | 96 Well Screen, AF susceptibility vs wildtype (S. cerevisiae PAB155, FBP1 deletion): Sensitive (″Resistant″ or ″Sensitive″ indicate at least a 5-fold CFU difference from wildtype at the final time point) | 96 Well Screen, AF susceptibility vs wildtype (S. cerevisiae PAB156, COX6 deletion): Sensitive (″Resistant″ or ″Sensitive″ indicate at least a 5-fold CFU difference from wildtype at the final time point)
